Results on two compounds are retold here after patent publication US12629354B2, “Sustained-release pharmaceutical compositions comprising of a sedative drug and uses thereof” (TAIWAN LIPOSOME CO., LTD., priority 2018, dated 2026).

One series is described as follows: in vivo. The note with it: rat. As for the experimental part: The rats were housed in a holding room which operated on a 12-hr light/12-hr dark circadian cycle with free access to water and food.
The rats were divided into two groups (n=4 in each group), one group received intramuscular (IM) injection of 100 μg/kg of free dexmedetomidine hydrochloride, prepared by dissolving the dexmedetomidine hydrochloride in 9.4% sucrose solution with a final concentration of 250 μg/mL. The other group received IM injection of 106 μg/kg of liposomal dexmedetomidine hydrochloride, prepared according to Example 1. Blood samples were collected at 15, 30 min, 1, 2, 4, 8, 24, 48, and 72 hours post-injection. Plasma samples were obtained by centrifugation, kept frozen at −80° C. and analyzed using liquid chromatography-tandem mass spectrometry. The plasma concentrations versus time curves were analyzed using a noncompartmental analysis model in PKSolver (Comput. Methods Programs Biomed. 2010; 99(3):306-314).

For series [1] the following is noted: plasma free dialysis bag, within 2 hours. As for the experimental part: Two in vitro release systems were used in the study, the first system was the plasma free environment and the second system was the human plasma environment. […] Each dialysis bag was immersed in 20 mL of PBS at pH 7.4 in a 50-mL centrifuge tube and incubated at 37±1° C. water bath for 168 or 72 hours. At designated time points after incubation (1, 2, 4, 6, 24, 50, 72, 100 and 168 hours of first system and 1, 2, 4, 8, 24, 48 and 72 hours of second system), 1.0 mL aliquot from the 20-mL PBS was sampled and 1.0 mL of fresh PBS was added to replenish the sampling aliquot. Drug concentrations of the sampled aliquots at each time point were analyzed using HPLC to create the in vitro release profile of the tested formulations.

Series [2] deals with guinea pigs. Nature of the series: Pharmacodynamic study, pin prick test with L-DEX or saline injected intramuscularly at a distant site. It counts as in vivo. The note with it: 1.5 mg ropivacaine intracutaneous, IM saline or 2.0 μg/kg L-DEX outside the pin prick area. As for the experimental part:
Four guinea pigs were used in this study and was divided into two groups (Groups A and B). […] Each guinea pig in Group A and Group B received 4 intracutaneous injections on its back. Of the 4 intracutaneous injections, 2 injections delivered 1.5 mg of free ropivacaine each and the other two injections delivered 1.5 mg of liposomal ropivacaine composition each. The anesthetic effect of ropivacaine was assessed at 30 minutes (0.5 hour), 1.0, 1.5, 2.0, 2.5, 3.0, 3.5, 4.0, 5.0, 6.0, 7.0, 8.0 and 10 hours post-injection. The anesthetic effect was determined by observing the guinea pig's response to stimuli around individual wheals (i.e., pin prick test). PD data obtained from the pin prick tests was analyzed using an inhibitory effect sigmoid Emax model in PKSolver (Comput Methods Programs Biomed. 2010; 99(3):306-314).

Series [3] deals with guinea pigs. Kind of series: Pharmacodynamic study, pin prick test after intracutaneous injection of 4 formulations. It counts as in vivo. The note with it: 1.5 mg ropivacaine with or without 0.2 μg L-DEX in the same injection.
Procedure: The guinea pigs were housed in a holding room which operated on a 12-hr light/12-hr dark circadian cycle with free access to water and food.
Four guinea pigs were used in this study and each guinea pig received 4 intracutaneous injections of 4 different formulations on its back to create 4 individual wheals respectively (i.e., 4 wheals per formulation), as illustrated in FIG. 3A. […] Briefly, 339.0 mg of DMPC, 96.7 mg of cholesterol and 200.0 mg of ropivacaine were dissolved in 10 mL of tert-butanol and lyophilized. The lyophilized cake was hydrated with a 50 mM histidine solution, pH 6, to form multilamellar vesicles (MLVs) with entrapped ropivacaine (liposomal ropivacaine composition), and the concentration of ropivacaine was diluted to 15.0 mg/mL with 9.4% sucrose solution. The anesthesia effect of ropivacaine was assessed at 30 minutes (0.5 hour), 1.0, 1.5, 2.0, 2.5, 3.0, 3.5, 4.0, 5.0, 6.0, 7.0, 8.0, 10 and 24 hours post-injection. The anesthetic effect was determined by observing the guinea pig's response to stimuli around individual wheals (pin prick test). PD data obtained from the pin prick tests were analyzed using an inhibitory effect sigmoid Emax model in PKSolver (Comput Methods Programs Biomed. 2010; 99(3):306-314).
[4] abbreviates: female, Sprague-Dawley, im, 100 ug/kg.

Counter-ions that a name gives are not always drawn.

The term AUC(0-inf) denotes the area under the concentration-time curve extrapolated to infinity. For orientation: AUC(0-t) means the area under the concentration-time curve up to a stated or last time point. Higher therefore signals more exposure. A word on the Cmax: it is the peak of the concentration-time curve. A word on the half-life: it is how long it takes for the measured level to halve. A higher half-life goes with slow decline. In “in vivo” (setting [4]), `Cc1cccc([C@H](C)c2cnc[nH]2)c1C` [Free Dexmedetomidine, dexmedetomidine hydrochloride] had an area under the curve AUC(0-inf) of 35.1 ng·h/mL, an AUC(0-t) of 31.4 ng·h/mL, a Cmax of 11 ng/mL and a half-life of 2.36 h. In addition, in the series “in vivo” (female, Sprague-Dawley, im, 8 h), the “dexmedetomidine released as indicated by AUC0-t” value is recorded as 100%. The “dexmedetomidine in the plasma of rats” value in “in vivo” is given as “undetectable”. The dexmedetomidine released in series [1] was roughly 100%.
Regarding `CCCN1CCCC[C@H]1C(=O)Nc1c(C)cccc1C` [Free Ropivacaine, ropivacaine hydrochloride monohydrate], in the series with guinea pigs [2], the Non-response time was 0.5 h and the TE50 amounted to 1.6 h. Besides, the “TE50 (time to half maximal effect)” value with guinea pigs [3] came to 4.5 h.
